pEC50, pKi: −log10 of the molar value. Where “and” joins values, the source holds several entries; their conditions need not be identical. Equal values may be shown once.

1 compound from US7622269B2, “Methods of screening tyramine- and octopamine-expressing cells for compounds and compositions having potential insect control activity” (Tyratech, Inc., priority 2004, dated 2009) can be followed below.

Assay [1] concerns control HEK-293 cells. The experiment in a line: Intracellular calcium in control HEK-293 cells transfected with empty pCDNA3. It counts as cell-based, human.
The subject of assay [2] is control HEK-293 cells. As to the kind of experiment: cAMP levels in control HEK-293 cells transfected with pCDNA3 without insert. The class given is cell-based, human. The method, then: (§1) Twenty-four hours before cell treatment, about 300,000 HEK-293 cells are plated in about 1 ml media with about 0.8 mg G418/ml into multi-well dishes (e.g., 12-well, 4.5 cm^2). For cell treatment, the media is aspirated and about 1 ml PBS with about 300 μM IBMX and the test reagent is added. […] Cells are incubated with about 70% ethanol for about 1 h at about −20° C. The cellular debris is centrifuged and then the supernatant is removed and lyophilized to dryness. The amount of cAMP in the extract is determined by using a cAMP binding protein from the ^3H-cAMP Biotrak assay system (Amersham Biosciences) as per the manufacturer's instructions. To test the effects of calcium chelation on cAMP levels, the cells are incubated with about […] BAPTA/AM (Calbiochem Biochemicals, La Jolla, Calif.) for about 10 min before the addition of the test reagents.
To determine which second messenger signaling pathways octopamine could affect through the Pa oa1 receptor, HEK-293 cells are stably transfected with pCDNA3-Pa oa1 or pCDNA3 without an insert as a control.
Background: Cyclic AMP is a second messenger, typically raised through Gs and lowered through Gi signalling.

Assay [3] addresses T1, OAMB (Drosophila melanogaster, UniProt Q7JQF1, L268I/L487I/L521I/T180I). The experiment in a line: biochemical. Details: Oligonucleotides designed to amplify the open reading frame of Drosophila melanogaster OAMB; expressed in transfected cells. The class given is binding.
Assay [4] has as its target T2, Pa oa1 (Periplaneta americana, UniProt Q7YWB7). As to the kind of experiment: cAMP levels in HEK-293 cells expressing Pa oa1. The class given is cell-based. The method, then:
as §1
(§2) To determine cAMP levels in cells, about 24-hours before cell treatment, 300,000 HEK-293 cells are plated in 1 mL media with 0.8 mg G418/mL into multi-dishes (4.5 cm2). For cell treatment, the media is aspirated and 1 mL PBS with 300 μM IBMX and the test reagent is added. Cells are incubated at 37° C. for 20 min, and the PBS is then aspirated. Cells are incubated with 70% ethanol for 1 hour at −20° C. The cellular debris is centrifuged and then the supernatant is removed and lyophilized to dryness. The amount of cAMP in the extract is determined by using a cAMP binding protein from the ^3H-cAMP Biotrak assay system (Amersham Biosciences, Piscataway, N.J.) as per the manufacturer's instructions.

Assay [5] addresses T2, Pa oa1. The experiment in a line: Intracellular calcium (Fura-2) in HEK-293 cells expressing Pa oa1. The class given is cell-based.
For assay [6], the target named is T1, OAMB. The experiment in a line: Intracellular calcium (Fura-2) in HEK-293 cells expressing OAMB. Conditions: 10 μM.
Description: Cells are collected by scraping and are suspended at about 750,000 cells/ml in HBSS with about 5 μM Fura-2 AM (Sigma-Aldrich).
Assay [7] has as its target T2, Pa oa1. As to the kind of experiment: Competitive binding against 3H-yohimbine, Pa oa1 membranes. Particulars: for pKi: Ki.
Assay [8] concerns the target T1, OAMB. The experiment in a line: cAMP levels in HEK-293 cells expressing OAMB. The class given is cell-based. Also noted: Oligonucleotides designed to amplify the open reading frame of Drosophila melanogaster OAMB; expressed in transfected cells. Particulars: 10 μM. How it is done: as §2

T2 sequence (Q7YWB7 entry or part of it): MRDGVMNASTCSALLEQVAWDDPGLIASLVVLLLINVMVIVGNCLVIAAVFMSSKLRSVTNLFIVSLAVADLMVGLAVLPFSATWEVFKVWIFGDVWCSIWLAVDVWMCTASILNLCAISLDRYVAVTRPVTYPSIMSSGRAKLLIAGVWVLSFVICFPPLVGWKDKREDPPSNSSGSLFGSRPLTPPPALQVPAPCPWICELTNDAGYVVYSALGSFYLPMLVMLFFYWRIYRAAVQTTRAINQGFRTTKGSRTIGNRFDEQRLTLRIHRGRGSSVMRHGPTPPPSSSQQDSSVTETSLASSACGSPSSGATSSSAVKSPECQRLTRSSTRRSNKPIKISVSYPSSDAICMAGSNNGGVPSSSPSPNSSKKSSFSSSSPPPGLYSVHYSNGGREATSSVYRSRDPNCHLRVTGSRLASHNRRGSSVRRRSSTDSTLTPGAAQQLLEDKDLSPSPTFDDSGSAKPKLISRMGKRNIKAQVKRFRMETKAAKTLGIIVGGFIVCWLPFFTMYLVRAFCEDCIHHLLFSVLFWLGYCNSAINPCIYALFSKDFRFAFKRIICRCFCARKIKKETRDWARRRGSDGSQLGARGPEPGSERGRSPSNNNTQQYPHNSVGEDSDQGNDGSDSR
T1 sequence (Q7JQF1 other isoform, or with tags, fused parts or gaps T180I/L268I/L487I/L524I): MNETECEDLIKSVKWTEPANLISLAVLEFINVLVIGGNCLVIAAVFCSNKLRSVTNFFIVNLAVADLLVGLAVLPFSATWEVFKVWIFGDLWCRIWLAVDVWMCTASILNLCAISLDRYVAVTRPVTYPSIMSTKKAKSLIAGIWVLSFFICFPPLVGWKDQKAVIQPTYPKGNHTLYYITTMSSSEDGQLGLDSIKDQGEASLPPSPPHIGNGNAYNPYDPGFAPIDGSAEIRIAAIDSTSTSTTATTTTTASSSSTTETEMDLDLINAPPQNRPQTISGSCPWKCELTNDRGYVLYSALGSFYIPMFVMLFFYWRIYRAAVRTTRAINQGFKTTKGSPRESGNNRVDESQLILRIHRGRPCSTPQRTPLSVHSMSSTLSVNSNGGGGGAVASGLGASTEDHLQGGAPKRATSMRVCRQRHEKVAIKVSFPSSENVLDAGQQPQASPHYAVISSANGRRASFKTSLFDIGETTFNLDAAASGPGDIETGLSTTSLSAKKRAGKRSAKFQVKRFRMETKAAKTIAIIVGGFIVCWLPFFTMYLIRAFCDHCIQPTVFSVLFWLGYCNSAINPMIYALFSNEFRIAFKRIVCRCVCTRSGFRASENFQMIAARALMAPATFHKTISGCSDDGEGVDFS

As usually defined, the pKi is the negative decadic logarithm of the Ki, by convention in mol/L. The low end stands for a large Ki, the high end for a small Ki. A word on the pEC50: it is the negative decadic logarithm of the EC50, by convention in mol/L. Take `NCC(O)c1ccc(O)cc1` (racemic) [Octopamine, DL-octopamine]: the “changes in [Ca2+]” value in the assay with control HEK-293 cells [1] (10 μM, empty vector) is “insignificant changes”. Also, in the assay on control HEK-293 cells [1] (about 10 μM), the “effect on intracellular calcium levels” value is given as “Neither about 10 μM octopamine nor about 10 μM tyramine modulates intracellular calcium levels”. For the same compound, the “changes in cAMP level” value in the assay on control HEK-293 cells [2] (10 μM, empty vector) was “insignificant changes”. Further, in the assay on control HEK-293 cells [2] (up to about 100 μM), the “effect on cAMP levels” value is reported as “neither DL-octopamine nor tyramine at concentrations up to about 100 μM has significant effects on cAMP levels”. The pKi on OAMB [3] was 5.09; on Pa oa1 [7] (Table B, 4 nM 3H-yohimbine), 4.88; on Pa oa1 [7] (about 2 nM 3H-yohimbine), ~4.88 and 4.88. The “affinity of octopamine higher than tyramine” value on OAMB [3] (OAMB) is recorded as “about 4.1 fold”; at Pa oa1 [7] (Pa oa1) it was “about 2.3 fold”. Moreover, the “effect on level of cAMP” value at Pa oa1 [4] (10 μM) and at OAMB [8] was “increases the level of cAMP” throughout. The pEC50 on Pa oa1 [4] (300 μM IBMX, read-out: EC50 for increase in cAMP) is about 5.79. The fold induction at 100 µM at Pa oa1 [4] (HEK293, 20 min, about 100 μM amine, read-out: increase in cAMP) is about 911. For the same compound, the cAMP concentration result at Pa oa1 [4] (about 10 nM amine, basal about 0.48 pmol cAMP) is “about 1.2 pmol cAMP”. On Pa oa1 [5], the “lowest concentration that increases intracellular calcium levels” value was “about 10 nM”. In addition, the “effect on level of [Ca2+]i” value on Pa oa1 [5] (10 μM) and on OAMB [6] was “increases the level [Ca^2+]i” throughout. Besides, at Pa oa1 [5] (about 100 nM), the “effect on intracellular calcium” value is recorded as “a rapid increase in intracellular calcium is detected”.
